# Assay results as given in PubChem BioAssay (NCI).
#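 Values below derive from 48-hour exposures of cells grown in 96-well plates, with endpoints linearly interpolated between the two concentrations bracketing the appropriate inhibition level. The concentration for 50% growth inhibition is given as GI50. TGI denotes the concentration required for complete inhibition of growth.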
# Experiments:
# Assay in all cases: NCI-60 cell line screen, 48 h
# [1] = test system: MDA-MB-468 breast
# [2] = test system: NCI-H23 lung
# [3] = test system: NCI-H522 lung
# [4] = test system: MCF7 breast
# [5] = test system: ACHN renal
# [6] = test system: HOP-92 NSCLC
# [7] = test system: SW-620 colon
# [8] = test system: OVCAR-3 ovarian
# [9] = test system: MALME-3M melanoma
# [10] = test system: A498 renal
# [11] = test system: HOP-62 NSCLC
# [12] = test system: COLO 205 colon
# [13] = test system: CAKI-1 renal
# [14] = test system: CCRF-CEM leukemia
# [15] = test system: HCC-2998 colon
# [16] = test system: OVCAR-5 ovarian
# [17] = test system: SR leukemia
# [18] = test system: UACC-257 melanoma
# [19] = test system: TK-10 renal
# [20] = test system: HL-60(TB) leukemia
# [21] = test system: OVCAR-8 ovarian
# [22] = test system: HS 578T breast
# [23] = test system: EKVX NSCLC
# [24] = test system: NCI-H226 lung
# [25] = test system: DU-145 prostate
# [26] = test system: OVCAR-4 ovarian
# [27] = test system: RXF 393 renal
# [28] = test system: SK-OV-3 ovarian
# [29] = test system: MDA-MB-435
# [30] = test system: HT29 colon
# [31] = test system: KM12 colon
# [32] = test system: K-562 leukemia
# [33] = test system: RPMI-8226 leukemia
# [34] = test system: NCI-H460 lung
# [35] = test system: IGROV1 ovarian
# [36] = test system: SF-539 CNS
# [37] = test system: SF-295 CNS
# [38] = test system: MDA-MB-231 breast
# [39] = test system: SF-268 CNS
# [40] = test system: A549 NSCLC
# [41] = test system: HCT-116 colon
# [42] = test system: MOLT-4 leukemia
# [43] = test system: U251 CNS
# [44] = test system: PC-3 prostate
# [45] = test system: M14 melanoma
# [46] = test system: UACC-62 melanoma
# [47] = test system: BT-549 breast
# [48] = test system: T-47D breast
# [49] = test system: HCT-15 colon
# [50] = test system: SNB-75 CNS
# [51] = test system: LOX IMVI melanoma
# [52] = test system: 786-0 renal
# [53] = test system: SNB-19 CNS
# [54] = test system: SN12C renal
# [55] = test system: SK-MEL-5 melanoma
# [56] = test system: UO-31 renal
# [57] = test system: SK-MEL-28 melanoma
smiles,measurement,setting,value
C=C(C)[C@@H]1CC[C@]2(C(N)=O)CC[C@]3(C)[C@H](CC[C@@H]4[C@@]5(C)C/C(=C/c6cccnc6)[C@H](O)C(C)(C)[C@@H]5CC[C@]43C)[C@@H]12,GI50,[1],4050 nM
same,TGI,[1],> 100 µM
COc1cnc2c(c1)C(=O)c1c-2n(CCCNC(C)C)c(=O)c2cc([N+](=O)[O-])ccc12,GI50,[1],20.6 nM
same,TGI,[1],0.0603 µM
CC(CN)[C@@H]1CC[C@]2(CO)CC[C@]3(C)[C@H](CC[C@@H]4[C@@]5(C)CCC(N)C(C)(C)[C@@H]5CC[C@]43C)[C@@H]12 (stereo not given in full),GI50,[1],1590 nM
same,TGI,[1],3.25 µM
CCN(CC)c1ccnc(CNCCSC(c2ccccc2)(c2ccccc2)c2ccc(OC)cc2)c1,GI50,[2],3.04 µM
same,TGI,[2],10.2 µM
same,GI50,[3],2440 nM
same,TGI,[3],7.29 µM
same,GI50,[4],1300 nM
same,TGI,[4],5.96 µM
same,GI50,[5],4.52 µM
same,TGI,[5],17.2 µM
same,GI50,[6],2360 nM
same,TGI,[6],9.84 µM
same,GI50,[7],3.14 µM
same,TGI,[7],13.2 µM
same,GI50,[8],3.18 µM
same,TGI,[8],11 µM
same,GI50,[9],2820 nM
same,TGI,[9],9.49 µM
same,GI50,[10],13.9 µM
same,TGI,[10],29.7 µM
same,GI50,[11],3.09 µM
same,TGI,[11],12.3 µM
same,GI50,[12],1720 nM
same,TGI,[12],3.52 µM
same,GI50,[13],3.63 µM
same,TGI,[13],16 µM
same,GI50,[14],3.13 µM
same,TGI,[14],10.8 µM
same,GI50,[15],1790 nM
same,TGI,[15],3.41 µM
same,GI50,[16],2930 nM
same,TGI,[16],10.6 µM
same,GI50,[17],2110 nM
same,TGI,[17],12.4 µM
same,GI50,[18],4.04 µM
same,TGI,[18],15.9 µM
same,GI50,[19],5.9 µM
same,TGI,[19],19.2 µM
same,GI50,[20],1650 nM
same,TGI,[20],4.24 µM
same,GI50,[21],2710 nM
same,TGI,[21],11.2 µM
same,GI50,[22],2260 nM
same,TGI,[22],6.8 µM
same,GI50,[23],3.61 µM
same,TGI,[23],14.9 µM
same,GI50,[24],3.1 µM
same,TGI,[24],13.6 µM
same,GI50,[25],3.78 µM
same,TGI,[25],13.6 µM
same,GI50,[26],4.32 µM
same,TGI,[26],20.6 µM
same,GI50,[27],2400 nM
same,TGI,[27],7.2 µM
same,GI50,[28],3.22 µM
same,TGI,[28],13.2 µM
same,GI50,[29],1440 nM
same,TGI,[29],5.12 µM
same,GI50,[30],1980 nM
same,TGI,[30],4.45 µM
same,GI50,[31],3.41 µM
same,TGI,[31],12.4 µM
same,GI50,[32],2680 nM
same,TGI,[32],8.97 µM
same,GI50,[33],2300 nM
same,TGI,[33],6.43 µM
same,GI50,[34],3.12 µM
same,TGI,[34],10.3 µM
same,GI50,[35],3.82 µM
same,TGI,[35],15.7 µM
same,GI50,[36],2150 nM
same,TGI,[36],4.27 µM
same,GI50,[37],2200 nM
same,TGI,[37],5.86 µM
same,GI50,[38],2320 nM
same,TGI,[38],5.78 µM
same,GI50,[39],4.35 µM
same,TGI,[39],19 µM
same,GI50,[40],3.74 µM
same,TGI,[40],17.1 µM
same,GI50,[41],2000 nM
same,TGI,[41],8.32 µM
same,GI50,[1],1660 nM
same,TGI,[1],4.49 µM
same,GI50,[42],2190 nM
same,TGI,[42],7.13 µM
same,GI50,[43],2920 nM
same,TGI,[43],10.7 µM
same,GI50,[44],3.19 µM
same,TGI,[44],13.3 µM
same,GI50,[45],1850 nM
same,TGI,[45],4.86 µM
same,GI50,[46],4.43 µM
same,TGI,[46],17 µM
same,GI50,[47],2620 nM
same,TGI,[47],6.87 µM
same,GI50,[48],2940 nM
same,TGI,[48],12 µM
same,GI50,[49],2870 nM
same,TGI,[49],10.8 µM
same,GI50,[50],1650 nM
same,TGI,[50],9.09 µM
same,GI50,[51],1900 nM
same,TGI,[51],3.86 µM
same,GI50,[52],1750 nM
same,TGI,[52],4.15 µM
same,GI50,[53],4.3 µM
same,TGI,[53],15.6 µM
same,GI50,[54],3.43 µM
same,TGI,[54],13.6 µM
same,GI50,[55],1680 nM
same,TGI,[55],3.06 µM
same,GI50,[56],3.86 µM
same,TGI,[56],17 µM
same,GI50,[57],4.2 µM
same,TGI,[57],15 µM
